The source made the active and inactive calls. No cut-off for these calls is given here.
Columns and labels:
Carbonic anhydrase 12 = Carbonic anhydrase 12 (Homo sapiens, UniProt O43570); test: Inhibition of recombinant human CA XII (30 to 291 residues) expressed in escherichia coli BL21 assessed as inhibition constant preincubated for 15 mins by phenol red dye based stopped-flow CO2 hydration assay
Carbonic anhydrase 1 = Carbonic anhydrase 1 (Homo sapiens, UniProt P00915); test: Inhibition of recombinant human CA1 assessed as inhibition constant preincubated for 15 mins by phenol red dye based stopped-flow CO2 hydration assay
Chain of Carbonic anhydrase 1 (P00915 whole entry): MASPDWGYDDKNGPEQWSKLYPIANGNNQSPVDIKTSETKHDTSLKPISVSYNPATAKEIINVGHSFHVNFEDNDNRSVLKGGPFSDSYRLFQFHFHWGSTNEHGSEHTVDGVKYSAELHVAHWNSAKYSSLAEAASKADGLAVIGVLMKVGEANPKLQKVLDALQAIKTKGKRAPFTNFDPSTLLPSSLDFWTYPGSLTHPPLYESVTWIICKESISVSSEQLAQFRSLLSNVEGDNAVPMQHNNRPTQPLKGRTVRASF

Carbonic anhydrase 2 = Carbonic anhydrase 2 (Homo sapiens, UniProt P00918); test: Inhibition of recombinant human […] assessed as inhibition constant preincubated for 15 mins by phenol red dye based stopped-flow CO2 hydration assay
Carbonic anhydrase 9 = Carbonic anhydrase 9 (Homo sapiens, UniProt Q16790); test: Inhibition of recombinant human […] assessed as inhibition constant preincubated for 15 mins by phenol red dye based stopped-flow CO2 hydration assay
A549 = test: Cytotoxicity against human A549 cells assessed as inhibition of cell viability for 48 hrs by MTT assay; type: functional, cell-based; conditions: A549, 48 h
MCF7 = test: Cytotoxicity against human MCF7 cells assessed as inhibition of cell viability for 48 hrs by MTT assay; type: functional, cell-based; conditions: for IC50: MCF7, 48 h
HeLa = test: Cytotoxicity against human HeLa cells assessed as inhibition of cell viability for 48 hrs by MTT assay; type: functional, cell-based

Chain of Carbonic anhydrase 12 (O43570 whole entry, the tested form may be a part): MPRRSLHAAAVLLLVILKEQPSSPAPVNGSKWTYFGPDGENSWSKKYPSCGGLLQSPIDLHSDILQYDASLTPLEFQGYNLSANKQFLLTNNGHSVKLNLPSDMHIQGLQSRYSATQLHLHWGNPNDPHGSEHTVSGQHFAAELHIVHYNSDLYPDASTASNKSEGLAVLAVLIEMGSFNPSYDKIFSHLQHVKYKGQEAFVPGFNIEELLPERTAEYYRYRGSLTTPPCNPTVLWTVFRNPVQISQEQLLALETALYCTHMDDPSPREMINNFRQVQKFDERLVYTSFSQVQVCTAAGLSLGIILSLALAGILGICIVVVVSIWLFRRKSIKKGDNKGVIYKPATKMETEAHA

| SMILES | Ki (Carbonic anhydrase 12) [nM] | Ki (Carbonic anhydrase 1) [nM] | Ki (Carbonic anhydrase 2) [nM] | Ki (Carbonic anhydrase 9) [nM] | IC50 (A549) [nM] | IC50 (MCF7) [nM] | IC50 (HeLa) [nM] | Activity (MCF7) | Activity (HeLa) |
| --- | --- | --- | --- | --- | --- | --- | --- | --- | --- |
| Cc1cc(-c2cccc(S(N)(=O)=O)c2)cnc1-c1ccnc2ccccc12 | 450 | 479 | 88.6 | 215 |  |  |  |  |  |
| Cc1cc(-c2ccc(S(N)(=O)=O)s2)ccc1-c1cccc2ccccc12 | 212 | 67.5 | 34.8 | 29.3 | 102000 | > 500000 | > 500000 |  |  |
| NS(=O)(=O)c1ccc(-c2ccc(-c3cccc4ncccc34)cc2)cc1 | 552 | 85.8 | 33.3 | 72.1 |  |  |  |  |  |
| NS(=O)(=O)c1ccc(-c2ccc(-c3cccc4ncccc34)cc2)s1 | 71.8 | 84.5 | 11.3 | 38.4 |  |  |  |  |  |
| NS(=O)(=O)c1ccc(-c2ccc(-c3ccnc4ccccc34)cn2)s1 | 51 | 72.5 | 2.1 | 61.4 | > 500000 |  |  | inactive | inactive |
| NS(=O)(=O)c1cccc(-c2ccc(-c3cccc4ccccc34)cc2)c1 | 558 | 698 | 144 | 331 |  |  |  |  |  |
| Cc1cc(-c2ccc(S(N)(=O)=O)s2)ccc1-c1cccc2ncccc12 | 79.4 | 71.7 | 5.7 | 27.2 | 22000 | 32000 | 31000 |  |  |
| Cc1cc(-c2cccc(S(N)(=O)=O)c2)ccc1-c1cccc2ccccc12 | 386 | 670 | 101 | 86.2 |  |  |  |  |  |
| Cc1cc(-c2ccc(S(N)(=O)=O)s2)cnc1-c1cccc2ncccc12 | 86.3 | 59 | 3.2 | 29.8 | 68000 | 71000 | 51000 |  |  |
| Cc1cc(-c2ccc(S(N)(=O)=O)s2)cnc1-c1cccc2ccccc12 | 212 | 90.5 | 7.3 | 29.3 |  |  |  |  |  |
| NS(=O)(=O)c1ccc(-c2ccc(-c3cccc4ccccc34)cc2)s1 | 559 | 92.8 | 28.7 | 483 | 30000 | 69000 | 24000 |  |  |
| NS(=O)(=O)c1ccc(-c2ccc(-c3cccc4ccccc34)cc2)cc1 | 501 | 113 | 58.2 | 84.3 |  |  |  |  |  |
| Cc1cc(-c2ccc(S(N)(=O)=O)s2)cnc1-c1ccnc2ccccc12 | 157 | 50 | 3.7 | 68.1 | 43500 | 16500 | 105000 |  |  |
| Cc1cc(-c2ccc(S(N)(=O)=O)cc2)ccc1-c1cccc2ccccc12 | 808 | 54.8 | 30.5 | 75.6 |  |  |  |  |  |
| Cc1cc(-c2ccc(S(N)(=O)=O)s2)ccc1-c1ccnc2ccccc12 | 41.8 | 35.6 | 5.5 | 106 |  |  |  |  |  |
| Cc1cc(-c2ccc(S(N)(=O)=O)cc2)cnc1-c1ccnc2ccccc12 | 247 | 48.9 | 4.9 | 167 |  |  |  |  |  |

From ChEMBL document CHEMBL5338740, “Atropo/Tropo Flexibility: A Tool for Design and Synthesis of Self-Adaptable Inhibitors of Carbonic Anhydrases and Their Antiproliferative Effect” (J Med Chem, 2023)
